Reference: ChEMBL document CHEMBL1201862, “PubChem BioAssay data set” (2004)
Activity calls are given as the source filed them.

Columns and labels:
[1] = blockers of CRF-binding protein–CRF-R2 complex – cell-based, uHTS hits, 384-well, dose response (AID 651639); assay type: functional, Homo sapiens; settings: read-out: IC50_Mean
[2] = molecular target: T1, Corticotropin-releasing factor receptor 2/Corticotropin-releasing factor-binding protein (Homo sapiens, UniProt P24387+Q13324); assay: activators of CRF receptor 2 with binding protein – uHTS hits, confirmation (AID 602473); assay type: functional; settings: read-out: EC50_Mean
T1 sequence (Q13324 whole entry): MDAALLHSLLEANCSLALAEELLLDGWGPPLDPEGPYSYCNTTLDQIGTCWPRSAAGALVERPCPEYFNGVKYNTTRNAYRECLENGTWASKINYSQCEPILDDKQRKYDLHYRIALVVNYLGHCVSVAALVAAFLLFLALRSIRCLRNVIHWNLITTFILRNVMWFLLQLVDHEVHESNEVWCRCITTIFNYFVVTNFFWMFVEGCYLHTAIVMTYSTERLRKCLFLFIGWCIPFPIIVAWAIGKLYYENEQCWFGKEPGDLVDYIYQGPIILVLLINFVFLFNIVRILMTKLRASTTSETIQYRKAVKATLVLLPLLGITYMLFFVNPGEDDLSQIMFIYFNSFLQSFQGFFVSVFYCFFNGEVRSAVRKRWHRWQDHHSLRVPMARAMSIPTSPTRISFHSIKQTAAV
T1 sequence (P24387 whole entry): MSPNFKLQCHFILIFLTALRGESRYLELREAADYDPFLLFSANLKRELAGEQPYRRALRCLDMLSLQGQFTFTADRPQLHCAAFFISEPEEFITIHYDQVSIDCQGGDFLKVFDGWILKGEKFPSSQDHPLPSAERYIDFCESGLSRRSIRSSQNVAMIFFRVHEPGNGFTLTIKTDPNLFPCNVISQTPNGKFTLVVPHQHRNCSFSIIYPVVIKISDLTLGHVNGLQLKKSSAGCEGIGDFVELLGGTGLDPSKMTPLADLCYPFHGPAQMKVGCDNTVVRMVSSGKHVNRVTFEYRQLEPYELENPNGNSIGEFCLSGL

HEK293 [3] = assay: EBV LMP1 TES2 canonical NF-kB signalling blockers – cell-based, HEK293, luciferase, cherry-pick, dose response (AID 588343); assay type: functional; settings: Homo sapiens
[4] = molecular target: T1, Corticotropin-releasing factor receptor 2/Corticotropin-releasing factor-binding protein; assay: Dose Response confirmation of uHTS hits for small molecule antagonists of the CRF-binding protein and CRF-R2 receptor complex.; assay type: functional; settings: read-out: IC50_Mean
[5] = molecular target: Latent membrane protein 1 (Human herpesvirus 4 (strain B95-8), UniProt P03230); assay: LMP1 TES1 pathway selectivity over dsRED control – imaging, HEK293T, dual-color eGFP/dsRED, cherry-picks, selectivity assay for LMP1 NF-kB inhibitor project, dose response (AID 588398); assay type: functional, cell-based
HEK293 [6] = assay: optical interference in Abeta FP readout, dose response, artefact control for IDE activator project, biochemical, fluorescence polarization (AID 588442); assay type: functional, cell-based; settings: Homo sapiens
Insulin-degrading enzyme [7] = molecular target: T2, Insulin-degrading enzyme (Homo sapiens, UniProt P14735); assay: cellular IDE activation of Abeta substrate cleavage – fluorescence polarization, HEK cells, dose response (AID 588439); assay type: functional, cell-based
T2 sequence (P14735 whole entry): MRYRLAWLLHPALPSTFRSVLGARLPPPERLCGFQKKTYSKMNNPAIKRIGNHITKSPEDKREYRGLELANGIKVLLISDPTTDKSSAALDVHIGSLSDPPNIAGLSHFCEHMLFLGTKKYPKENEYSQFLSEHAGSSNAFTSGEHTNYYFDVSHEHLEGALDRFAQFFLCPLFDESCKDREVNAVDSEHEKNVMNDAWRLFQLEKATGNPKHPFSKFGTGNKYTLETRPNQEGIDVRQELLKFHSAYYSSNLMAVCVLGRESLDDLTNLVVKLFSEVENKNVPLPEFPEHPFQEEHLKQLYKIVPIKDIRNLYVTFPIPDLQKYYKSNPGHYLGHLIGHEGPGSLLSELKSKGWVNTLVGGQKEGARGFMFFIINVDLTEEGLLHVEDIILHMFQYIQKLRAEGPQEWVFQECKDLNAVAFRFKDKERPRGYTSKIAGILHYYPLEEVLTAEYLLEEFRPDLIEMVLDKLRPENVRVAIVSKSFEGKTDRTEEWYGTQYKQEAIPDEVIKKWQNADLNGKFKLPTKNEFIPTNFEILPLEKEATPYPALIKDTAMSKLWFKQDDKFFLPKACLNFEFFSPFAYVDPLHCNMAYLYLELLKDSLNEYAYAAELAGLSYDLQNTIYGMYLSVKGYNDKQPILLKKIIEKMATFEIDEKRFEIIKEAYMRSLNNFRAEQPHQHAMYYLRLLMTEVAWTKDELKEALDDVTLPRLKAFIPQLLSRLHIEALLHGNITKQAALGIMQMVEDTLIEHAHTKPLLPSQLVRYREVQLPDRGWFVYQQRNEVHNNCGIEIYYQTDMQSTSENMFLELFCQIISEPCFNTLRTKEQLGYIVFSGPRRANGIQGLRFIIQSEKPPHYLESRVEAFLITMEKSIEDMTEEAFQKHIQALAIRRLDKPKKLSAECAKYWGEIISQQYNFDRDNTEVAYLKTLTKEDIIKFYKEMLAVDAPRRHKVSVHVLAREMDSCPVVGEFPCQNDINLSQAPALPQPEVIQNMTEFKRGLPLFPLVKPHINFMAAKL

Insulin-degrading enzyme [8] = molecular target: T2, Insulin-degrading enzyme; assay: recombinant IDE activation, cell-free – biochemical, fluorescence polarization, counter-screen for IDE activator project, dose response (AID 588681)
HEK293 [9] = assay: membrane integrity loss in HEK cells – cell-based, fluorescence, cytotoxicity control for IDE activator project, dose response (AID 588440); assay type: functional; settings: Homo sapiens;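 also: cytotoxicity by LDH release measuring loss of membrane integrity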
[10] = molecular target: T3, Sentrin-specific protease 8 (Homo sapiens, UniProt Q96LD8); assay: inhibition of human SENP8 cleavage activity – biochemical, luminescence, SAR follow-up (AID 504501); assay type: functional
T3 sequence (Q96LD8 whole entry): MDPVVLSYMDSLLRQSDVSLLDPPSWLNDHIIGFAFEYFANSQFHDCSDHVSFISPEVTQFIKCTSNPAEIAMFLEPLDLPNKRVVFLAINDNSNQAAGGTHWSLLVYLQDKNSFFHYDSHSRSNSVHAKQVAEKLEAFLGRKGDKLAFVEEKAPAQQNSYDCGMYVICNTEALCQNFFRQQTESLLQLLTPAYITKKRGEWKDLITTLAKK

Caspase-3 = molecular target: T4, Caspase-3 (Homo sapiens, UniProt P42574); assay: SAR Analysis of small molecule inhibitors of Sentrin-specific proteases (SENPs) using a Caspase-3 Selectivity assay. [Related pubchem assays (depositor defined):AID2540, AID2599, AID434973, AID489001]; assay type: functional
T4 sequence (P42574 whole entry): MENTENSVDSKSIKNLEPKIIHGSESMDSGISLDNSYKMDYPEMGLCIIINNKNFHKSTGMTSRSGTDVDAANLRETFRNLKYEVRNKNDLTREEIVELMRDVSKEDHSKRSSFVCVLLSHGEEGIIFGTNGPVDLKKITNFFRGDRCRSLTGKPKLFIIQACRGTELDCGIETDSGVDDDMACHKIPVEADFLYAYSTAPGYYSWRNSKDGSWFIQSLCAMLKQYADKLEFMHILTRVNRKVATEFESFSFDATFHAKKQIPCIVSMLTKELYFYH

[11] = molecular target: T5, Sentrin-specific protease 7 (Homo sapiens, UniProt Q9BQF6); assay: inhibition of human SENP7 cleavage activity – biochemical, luminescence, SAR follow-up (AID 504497); assay type: functional
T5 sequence (Q9BQF6 whole entry): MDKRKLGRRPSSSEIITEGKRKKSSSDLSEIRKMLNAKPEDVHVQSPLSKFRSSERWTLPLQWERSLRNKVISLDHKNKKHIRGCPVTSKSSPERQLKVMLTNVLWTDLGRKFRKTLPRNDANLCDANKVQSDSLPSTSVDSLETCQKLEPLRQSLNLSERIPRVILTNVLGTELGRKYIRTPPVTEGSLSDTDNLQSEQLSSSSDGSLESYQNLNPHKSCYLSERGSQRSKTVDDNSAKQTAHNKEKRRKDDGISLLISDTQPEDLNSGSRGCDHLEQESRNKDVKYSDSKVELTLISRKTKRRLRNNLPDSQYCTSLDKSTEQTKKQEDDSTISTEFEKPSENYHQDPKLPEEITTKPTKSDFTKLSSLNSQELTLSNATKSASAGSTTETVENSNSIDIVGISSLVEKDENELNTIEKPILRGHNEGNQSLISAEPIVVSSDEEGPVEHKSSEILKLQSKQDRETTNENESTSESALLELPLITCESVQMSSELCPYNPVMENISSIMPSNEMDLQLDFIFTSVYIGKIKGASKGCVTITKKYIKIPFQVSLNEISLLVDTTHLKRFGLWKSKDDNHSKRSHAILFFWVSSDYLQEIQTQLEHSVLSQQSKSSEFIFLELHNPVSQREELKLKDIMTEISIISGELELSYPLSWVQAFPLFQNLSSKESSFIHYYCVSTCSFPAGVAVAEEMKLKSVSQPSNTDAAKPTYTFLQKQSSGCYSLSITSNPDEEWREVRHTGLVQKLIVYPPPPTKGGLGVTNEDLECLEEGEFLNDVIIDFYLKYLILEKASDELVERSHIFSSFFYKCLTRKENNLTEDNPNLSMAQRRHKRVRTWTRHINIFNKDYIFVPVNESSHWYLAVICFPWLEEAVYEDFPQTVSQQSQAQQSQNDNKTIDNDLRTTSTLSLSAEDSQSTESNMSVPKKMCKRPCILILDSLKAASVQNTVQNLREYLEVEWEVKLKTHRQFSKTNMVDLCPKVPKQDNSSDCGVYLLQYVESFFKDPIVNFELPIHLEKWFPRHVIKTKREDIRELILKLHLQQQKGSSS

[12] = molecular target: T6, Sentrin-specific protease 6 (Homo sapiens, UniProt Q9GZR1); assay: SAR Analysis of small molecule inhibitors of Sentrin-specific protease 6 (SENP6) using a Luminescent assay. [Related pubchem assays (depositor defined):AID2582, AID2599]; assay type: functional
T6 sequence (Q9GZR1 whole entry): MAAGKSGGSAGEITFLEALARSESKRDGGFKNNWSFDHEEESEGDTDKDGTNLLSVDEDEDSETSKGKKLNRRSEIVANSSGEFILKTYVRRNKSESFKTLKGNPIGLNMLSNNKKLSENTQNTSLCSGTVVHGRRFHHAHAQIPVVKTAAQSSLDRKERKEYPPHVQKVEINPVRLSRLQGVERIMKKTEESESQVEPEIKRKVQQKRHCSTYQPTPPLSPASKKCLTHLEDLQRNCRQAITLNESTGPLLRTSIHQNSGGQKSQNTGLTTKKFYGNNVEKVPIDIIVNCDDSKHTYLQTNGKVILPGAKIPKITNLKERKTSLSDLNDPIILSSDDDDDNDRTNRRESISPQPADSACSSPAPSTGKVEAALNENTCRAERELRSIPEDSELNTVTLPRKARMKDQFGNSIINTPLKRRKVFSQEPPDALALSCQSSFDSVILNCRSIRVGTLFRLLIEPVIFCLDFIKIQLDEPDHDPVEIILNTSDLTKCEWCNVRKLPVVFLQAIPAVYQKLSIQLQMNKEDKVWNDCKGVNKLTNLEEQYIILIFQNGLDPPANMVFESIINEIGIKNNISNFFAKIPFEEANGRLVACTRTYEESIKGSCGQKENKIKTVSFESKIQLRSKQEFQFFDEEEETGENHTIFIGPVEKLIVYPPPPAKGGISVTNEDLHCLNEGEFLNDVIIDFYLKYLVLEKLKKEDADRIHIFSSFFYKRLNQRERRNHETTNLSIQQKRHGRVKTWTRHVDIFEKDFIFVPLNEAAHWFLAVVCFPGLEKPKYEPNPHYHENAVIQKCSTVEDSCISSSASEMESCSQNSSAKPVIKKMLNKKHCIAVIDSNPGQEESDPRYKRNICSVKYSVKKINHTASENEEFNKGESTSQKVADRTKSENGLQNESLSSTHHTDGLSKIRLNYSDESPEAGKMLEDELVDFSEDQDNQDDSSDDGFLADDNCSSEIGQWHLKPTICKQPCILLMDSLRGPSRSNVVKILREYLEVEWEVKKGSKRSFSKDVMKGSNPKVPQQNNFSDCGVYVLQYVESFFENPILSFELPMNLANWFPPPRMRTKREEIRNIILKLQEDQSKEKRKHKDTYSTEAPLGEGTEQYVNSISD

Latent membrane protein 1, sequence (P03230 whole entry): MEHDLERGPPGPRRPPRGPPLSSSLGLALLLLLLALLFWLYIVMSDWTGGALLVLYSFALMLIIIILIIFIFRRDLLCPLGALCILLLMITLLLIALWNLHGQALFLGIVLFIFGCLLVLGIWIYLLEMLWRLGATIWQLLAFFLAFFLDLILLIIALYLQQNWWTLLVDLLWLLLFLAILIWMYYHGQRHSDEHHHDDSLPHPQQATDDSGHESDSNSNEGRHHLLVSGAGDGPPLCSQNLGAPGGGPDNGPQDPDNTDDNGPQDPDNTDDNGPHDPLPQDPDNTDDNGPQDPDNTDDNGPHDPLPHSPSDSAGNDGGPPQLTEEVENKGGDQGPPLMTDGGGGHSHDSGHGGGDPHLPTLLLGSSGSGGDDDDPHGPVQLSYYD

CC(C)c1cc(NC(=O)c2ccccc2)cc(C(C)C)c1O
IC50 [1]: 5.7 µM (active)
EC50 [2]: > 53 µM (inactive)
AC50 (HEK293 [3]): 98.1 µM (active)
IC50 [4]: < 0.368 µM (active)
AC50 [5]: 30 µM (active)

C[C@@H]1O[C@@H](O[C@H]2[C@H](O[C@H]3C[C@]4(C)[C@H](CC(O)C5[C@@H]([C@]6(C)CC[C@@H](C(C)(C)O)O6)CC[C@]54C)[C@@]4(C)CC[C@H](O)C(C)(C)C34)O[C@H](CO)[C@@H](O)[C@@H]2O)[C@H](O)[C@H](O)[C@H]1O (some centres not stated)
EC50 (HEK293 [6]): > 54.7 µM (inactive)
EC50 (Insulin-degrading enzyme [7]): > 54.7 µM (inactive)
EC50 (Insulin-degrading enzyme [8]): > 54.7 µM (inactive)
IC50 (HEK293 [9]): > 89.2 µM (inactive)

NC(=O)c1ccc(OC2CSC2)cc1
IC50 [10]: 7.5 µM (active)
IC50 (Caspase-3): > 99 µM (inactive)
IC50 [11]: > 99 µM (inactive)
IC50 [12]: 18.7 µM (active)

O=C(Cc1cccc(C(F)(F)F)c1)N(c1ccccc1)c1nc(-c2ccccc2)ns1
IC50 [10]: > 99 µM (inactive)
IC50 (Caspase-3): > 99 µM (inactive)
IC50 [11]: > 99 µM (inactive)
IC50 [12]: > 99 µM (inactive)
